Article PMC11555173, “Preparation and preliminary evaluation of a tritium-labeled allosteric P2X4 receptor antagonist” (Purinergic Signalling, 2024)
Entries after “also recorded” stand apart in the source; their conditions may differ. Like-named read-outs stand apart in the source and are kept apart here.

How the values were obtained:
[1] = biological target: T1, human P2X4 receptor (Homo sapiens, UniProt Q99571); assay: [3H]PSB-OR-2020 radioligand binding assay, HEK293 cell membranes expressing human P2X4 receptor; design: expressed in transfected cells; host or cells: HEK293 cells, transient transfection (pQCXIN; pcDNA3.1(-) was also tried)
T1 sequence (Q99571 1-388): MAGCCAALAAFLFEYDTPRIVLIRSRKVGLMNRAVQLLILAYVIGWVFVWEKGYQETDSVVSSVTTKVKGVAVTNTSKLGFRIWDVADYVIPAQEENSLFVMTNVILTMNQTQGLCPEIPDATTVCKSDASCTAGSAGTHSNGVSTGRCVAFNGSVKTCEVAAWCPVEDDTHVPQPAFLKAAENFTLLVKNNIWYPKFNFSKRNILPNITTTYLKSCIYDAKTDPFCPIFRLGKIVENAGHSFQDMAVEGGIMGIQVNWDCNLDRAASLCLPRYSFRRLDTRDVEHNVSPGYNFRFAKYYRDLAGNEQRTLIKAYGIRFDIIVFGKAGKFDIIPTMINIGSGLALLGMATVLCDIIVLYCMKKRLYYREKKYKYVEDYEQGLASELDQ

[2] = biological target: T2, human P2X1 (Homo sapiens, UniProt P51575); assay: Calcium influx assay, 1321N1 astrocytoma cells stably expressing human P2X1 receptor; format: cell-based
T2 construct: expressed in transfected cells
T2 sequence (P51575 1-399): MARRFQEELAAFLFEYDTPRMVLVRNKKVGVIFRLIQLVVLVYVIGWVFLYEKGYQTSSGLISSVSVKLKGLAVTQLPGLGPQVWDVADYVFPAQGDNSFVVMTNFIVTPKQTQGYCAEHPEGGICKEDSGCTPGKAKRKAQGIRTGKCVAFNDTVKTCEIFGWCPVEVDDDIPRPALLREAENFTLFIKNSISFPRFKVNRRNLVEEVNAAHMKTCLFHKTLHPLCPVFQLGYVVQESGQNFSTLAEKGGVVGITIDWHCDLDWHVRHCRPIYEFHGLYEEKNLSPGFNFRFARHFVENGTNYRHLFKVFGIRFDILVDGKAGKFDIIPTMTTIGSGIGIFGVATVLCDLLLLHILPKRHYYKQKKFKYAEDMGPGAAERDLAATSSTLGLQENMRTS
Description: (§1) The selectivity of PSB-OR-2020 versus other P2X receptor subtypes was determined in the same type of assay using 1321N1 astrocytoma cells stably expressing the respective human P2X receptor subtype (see Table 1).
(§2) To determine the effects of the compound on P2X4, P2X2, and P2X7 receptors, the agonist-mediated increases in cytosolic Ca^2+ concentrations were measured using the fluorescent Ca^2+ chelating dye Fluo-4 acetoxymethyl ester (AM) (Thermo Fisher Scientific). On the first day, 1321N1 astrocytoma cells (45.000 cells/well) stably expressing the respective P2X receptor were seeded into a 96-well plate (No. 3340, Corning, Kennebunk, Maine, USA), and incubated at 37 °C and 10% of CO2. […]
(§3) Following the incubation, the dye solution was carefully removed, and the antagonist (dissolved in DMSO) and HBSS buffer were added to the cells. […] To activate the receptors, transparent 96-well reagent plates (Boettger, Bodenmais, Germany) containing the agonists dissolved in HBSS buffer (10-fold concentration of previously determined EC80) were prepared. The plates were measured after 30 min of preincubation with antagonist with the imaging plate reader NOVOstar (BMG Labtech GmbH, Offenburg, Germany) at 520 nm for 30 s at 0.4 s intervals.

[3] = biological target: T3, human P2X3 (Homo sapiens, UniProt P56373); assay: Calcium influx assay, 1321N1 astrocytoma cells stably expressing human P2X3 receptor; format: cell-based
T3 construct: expressed in transfected cells
T3 sequence (P56373 1-397): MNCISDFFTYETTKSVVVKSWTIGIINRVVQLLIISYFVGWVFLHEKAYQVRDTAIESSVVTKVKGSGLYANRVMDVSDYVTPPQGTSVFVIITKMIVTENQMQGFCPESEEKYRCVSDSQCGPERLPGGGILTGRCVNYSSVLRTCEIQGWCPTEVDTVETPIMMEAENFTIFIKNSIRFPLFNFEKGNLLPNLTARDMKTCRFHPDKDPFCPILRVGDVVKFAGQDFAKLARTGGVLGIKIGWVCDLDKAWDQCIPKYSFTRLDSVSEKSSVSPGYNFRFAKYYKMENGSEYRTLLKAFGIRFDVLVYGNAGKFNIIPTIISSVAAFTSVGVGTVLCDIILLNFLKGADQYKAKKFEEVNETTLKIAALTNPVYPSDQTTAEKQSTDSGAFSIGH
Description: as §1, §2, §3

[4] = biological target: T1, human P2X4 receptor; assay: Calcium influx assay, 1321N1 astrocytoma cells stably expressing human P2X4 receptor; format: cell-based; design: expressed in transfected cells
Description: Calcium influx assays using 1321N1 astrocytoma cells that stably expressed the human P2X4 receptor were performed. Concentration-dependent inhibition of ATP-induced calcium influx was observed.
as §2, §3

[5] = biological target: T4, human P2X2 (Homo sapiens, UniProt Q9UBL9); assay: Calcium influx assay, 1321N1 astrocytoma cells stably expressing human P2X2 receptor; format: cell-based
T4 construct: expressed in transfected cells
T4 sequence (Q9UBL9 1-471): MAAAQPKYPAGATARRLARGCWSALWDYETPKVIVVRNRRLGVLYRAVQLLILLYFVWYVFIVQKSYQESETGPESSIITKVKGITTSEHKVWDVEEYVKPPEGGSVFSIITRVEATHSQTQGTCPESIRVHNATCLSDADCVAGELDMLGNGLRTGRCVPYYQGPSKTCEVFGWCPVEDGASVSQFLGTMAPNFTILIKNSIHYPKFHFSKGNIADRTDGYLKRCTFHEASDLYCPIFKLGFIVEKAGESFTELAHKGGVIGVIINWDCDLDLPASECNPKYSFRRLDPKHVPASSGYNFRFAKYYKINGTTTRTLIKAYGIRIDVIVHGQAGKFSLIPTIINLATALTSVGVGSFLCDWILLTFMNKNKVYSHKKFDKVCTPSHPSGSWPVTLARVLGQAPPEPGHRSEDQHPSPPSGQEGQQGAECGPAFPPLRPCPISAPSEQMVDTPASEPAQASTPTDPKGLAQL

[6] = biological target: T5, human P2X7 (Homo sapiens, UniProt Q99572); assay: Calcium influx assay, 1321N1 astrocytoma cells stably expressing human P2X7 receptor (agonist Bz-ATP); format: cell-based; conditions: Bz-ATP 6,000 nM (EC80)
T5 construct: expressed in transfected cells
T5 sequence (Q99572 1-595): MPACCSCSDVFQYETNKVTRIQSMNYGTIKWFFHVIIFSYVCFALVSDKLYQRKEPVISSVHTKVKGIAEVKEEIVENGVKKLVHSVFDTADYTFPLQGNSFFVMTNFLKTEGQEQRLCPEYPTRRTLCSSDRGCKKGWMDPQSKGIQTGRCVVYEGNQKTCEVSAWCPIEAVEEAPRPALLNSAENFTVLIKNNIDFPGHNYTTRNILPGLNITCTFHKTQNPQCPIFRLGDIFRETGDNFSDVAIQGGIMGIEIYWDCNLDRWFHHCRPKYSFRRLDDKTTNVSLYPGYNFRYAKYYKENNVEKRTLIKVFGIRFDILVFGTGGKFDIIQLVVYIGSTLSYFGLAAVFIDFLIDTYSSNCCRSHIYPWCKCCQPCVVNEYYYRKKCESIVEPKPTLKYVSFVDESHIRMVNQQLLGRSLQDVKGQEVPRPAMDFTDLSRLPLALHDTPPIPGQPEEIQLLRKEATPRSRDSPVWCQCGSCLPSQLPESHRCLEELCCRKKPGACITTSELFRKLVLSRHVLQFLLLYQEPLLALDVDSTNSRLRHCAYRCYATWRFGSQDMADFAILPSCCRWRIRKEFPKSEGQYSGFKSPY
Description: as §1, §2, §3

[7] = system: P2X4 receptor; design: method as in PMID 35338432; conditions: ref [44]; cited from earlier work
[8] = system: P2X4; design: method as in PMID 30537520, PMID 34476721; conditions: ref [14], [36]; cited from earlier work
[9] = biological target: T1, human P2X4 receptor; design: expressed in transfected cells; host or cells: HEK293 cells, transient transfection (pQCXIN; pcDNA3.1(-) was also tried); conditions: ref Müller et al. [36]; cited from earlier work
[10] = system: P2X4 receptor; design: method as in PMID 36150180; conditions: ref [38]; cited from earlier work
[11] = high concentration of competitor, radioligand 10 nM
[12] = 4 °C, three independent association and dissociation experiments, read-out: kinetic KD value (koff/kon)
[13] = vs. [3H]PSB-OR-2020 (10 nM), HEK293 membranes, human P2X4, read-out: KD value, homologous competition binding
[14] = 4 °C, radioligand 10 nM, HEK293 membranes, human P2X4

CC(C)c1cc(Br)c(NC(=O)Nc2cccnc2)c(Br)c1 [BX430, reference compound]
displacement of [3H]PSB-OR-2020 from its binding site [1, 11]: not or only partially be displaced
displacement of [3H]PSB-OR-2020 from its binding site ([1]; high concentrations of competitor, radioligand 10 nM): less than 40%

Cc1nsc(-c2ccc(C)c(NCC(=O)N3CCc4c3cccc4[C@](C)(O)CO)c2)n1 [PSB-OR-2020, (S)-1-(4-(1,2-dihydroxypropane-2yl)indolin-1-yl)-2-((2-methyl-5-(3-methyl-1,2,4-thiadiazol-5-yl)phenyl)amino)ethane-1-one]
IC50 [2]: > 10000 nM
IC50 [3]: 2030 nM
IC50 at P2X3 receptor relative to IC50 at P2X4 receptor ([3]; P2X3 vs P2X4 selectivity): about 300 fold
IC50 ([4]; read-out: IC50 ± SEM, inhibition of ATP-induced Ca2+ influx): 6.32 ± 1.52 nM
IC50 [5]: > 10000 nM
Kd [1, 12]: 7.06 ± 3.23 nM
Bmax value ([1]; homologous competition binding, HEK293 membranes, human P2X4): 71.7 fmol/mg of protein
Kd [1, 13]: 20.4 ± 7.5 nM
IC50 [6]: > 10000 nM

O=C1CC(=O)N(c2cccc(-c3noc(=S)[nH]3)c2)c2ccc3ccccc3c2N1 [NP-1815-PX]
effects in a murine model of colitis [7]: improve several inflammatory parameters

[3H]c1cc2c(c([C@](C)(O)CO)c1)CCN2C(=O)CNc1cc(-c2nc(C)ns2)c([3H])cc1C [[^3H]PSB-OR-2020]
association half-life [1, 14]: 8.44 ± 2.59 min
dissociation half-life [1, 14]: 20.4 ± 2.9 min
Kd [1, 12]: 7.06 ± 3.23 nM
Kd [1, 13]: 20.4 nM

Cc1nsc(-c2ccc(C)c(NCC(=O)c3c[nH]c4ccccc34)c2)n1 [PSB-15417]
efficacy in an animal model of neuropathic pain [8]: showing efficacy
displacement of [3H]PSB-OR-2020 from its binding site [1, 11]: completely displaced
IC50 [9]: 21.9 nM

O=C1CC(=O)N(c2ccnc(-c3noc(=S)[nH]3)c2)c2ccc3ccccc3c2N1 [MRS4719]
effects in a murine ischemic stroke model [10]: neuroprotective and neuro-rehabilitative effects

Nc1ncnc2c1ncn2[C@@H]1O[C@H](COP(=O)(O)OP(=O)(O)OP(=O)(O)O)[C@@H](O)[C@H]1O [ATP, Adenosine 5’-triphosphate, reference compound]
EC80 concentration of agonist ([4]; human P2X4, calcium influx): 300 nM
displacement of [3H]PSB-OR-2020 from its binding site [1, 11]: only slightly displaced; also recorded: does not compete
